The values that follow come from US20210246122A1, “Triazine Compounds and Uses Thereof” (Aduro Biotech, Inc., priority 2018, published 2021).

Some results are limits rather than exact numbers.

Assay [1] concerns the target T1, Human cGAS amino acids 155-522 (Homo sapiens, UniProt Q8N884).
T1 construct: hexahistidine tag (N, cleaved yes); made in house; host or cells: E. coli BL21 DE3 Rosetta 2
In words: cGAS activity assay (DNA-activated cGAS, remaining ATP measured by Kinase-Glo Max luciferase assay). In kind it is biochemical. The note with it: 300 nM purified cGAS, 1 μM dsDNA, 250 μM ATP, 100 μM GTP, 37° C. for 1.25 hours. The essentials: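 Recombinant human cGAS 155-522 (300 nM) activated by 1 μM annealed dsDNA, run at 37° C for 1.25 h in Tris pH 9 buffer with 250 μM ATP and 100 μM GTP, 5% final DMSO. Compounds from 1 μM in 3- or 4-fold dilutions; remaining ATP read by luciferase luminescence, normalized to no-compound wells.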
(In general: In Kinase-Glo more light means more ATP remaining.)

Assay [2] relates to cGAS/STING pathway. Put plainly: THP1 cell-based cGAS/STING pathway activity assay (luciferase reporter linked to IRF-3 activation). Particulars: Homo sapiens, THP-1; THP1 cells, IRF-3 linked luciferase reporter. As for the experimental part:
A cellular assay can be used to assess the compounds of the invention for their ability to inhibit the cGAS/STING pathway. Cells that express a luciferase-based reporter that is linked to IRF-3 activation are used to determine response as a function of compound concentration. Such an assay is described in Vincent et al., Nature Communications 2017, 8(1):750, doi: 10.1038/s41467-017-00833-9. Compounds of the invention were assessed using similar assay methods in a THP1 cell assay to generate IC50 values as provided in the following Table 8. In this table, activity level “A” indicates an IC50 value less than 20 μM, “B” indicates an IC50 value between 20 and 100 μM, and “C” indicates an IC50 value above the upper limit of the assay (100 μM), or where an IC50 value could not be generated from the data.
A general note: In a reporter assay the amount or activity of a reporter protein is the signal.

T1 sequence (Q8N884 157-522): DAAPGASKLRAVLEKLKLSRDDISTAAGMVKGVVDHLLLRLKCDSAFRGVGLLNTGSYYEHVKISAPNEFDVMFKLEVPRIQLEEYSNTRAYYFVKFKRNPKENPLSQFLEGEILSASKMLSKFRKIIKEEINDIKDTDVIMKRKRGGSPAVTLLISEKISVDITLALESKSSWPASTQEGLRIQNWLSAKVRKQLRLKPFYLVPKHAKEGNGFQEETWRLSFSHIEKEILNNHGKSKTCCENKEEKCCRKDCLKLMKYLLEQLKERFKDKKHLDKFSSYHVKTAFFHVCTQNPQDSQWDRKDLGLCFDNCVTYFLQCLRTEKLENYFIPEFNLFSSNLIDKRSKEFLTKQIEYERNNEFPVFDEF

In general, IC50 refers to the point on the concentration scale where inhibition reaches its midpoint. Read a low IC50 as inhibition by little substance. For `COC(=O)[C@H](Cc1ccc(C#N)cc1)Nc1nc(NCc2nc3cc(F)ccc3[nH]2)nc(Nc2cccc(CN3CCN(C(=O)c4nccnc4O)CC3)c2)n1` [TA1020, methyl (S)-3-(4-cyanophenyl)-2-((4-(((5-fluoro-1H-benzo[d]imidazol-2-yl)methyl)amino)-6-((3-((4-(3-hydroxypyrazine-2-carbonyl)piperazin-1-yl)methyl)phenyl)amino)-1,3,5-triazin-2-yl)amino)propanoate], the IC50 is below 20 µM in assay [1] and above 100 µM in assay [2].
`CN(C)C(=O)[C@H](Cc1ccc(C#N)cc1)Nc1nc(NCc2nc3cc(F)ccc3[nH]2)nc(Nc2cccc(CN3CCN(C(=O)c4nccnc4O)CC3)c2)n1` [TA1021, (S)-3-(4-cyanophenyl)-2-((4-(((5-fluoro-1H-benzo[d]imidazol-2-yl)methyl)amino)-6-((3-((4-(3-hydroxypyrazine-2-carbonyl)piperazin-1-yl)methyl)phenyl)amino)-1,3,5-triazin-2-yl)amino)-N,N-dimethylpropanamide]: the IC50 in assay [1] was below 20 µM; in assay [2], above 100 µM.
For `CNC(=O)[C@H](Cc1ccc(C#N)cc1)Nc1nc(NCc2nc3cc(F)ccc3[nH]2)nc(Nc2cccc(CN3CCN(C(=O)c4nccnc4O)CC3)c2)n1` [TA1024, (S)-3-(4-cyanophenyl)-2-((4-(((5-fluoro-1H-benzo[d]imidazol-2-yl)methyl)amino)-6-((3-((4-(3-hydroxypyrazine-2-carbonyl)piperazin-1-yl)methyl)phenyl)amino)-1,3,5-triazin-2-yl)amino)-N-methylpropanamide] the same measures were below 20 µM and above 100 µM.
The like results for `COCCOCCNC(=O)[C@H](Cc1ccc(C#N)cc1)Nc1nc(NCc2nc3cc(F)ccc3[nH]2)nc(Nc2cccc(CN3CCN(C(=O)c4nccnc4O)CC3)c2)n1` [TA1025, (S)-3-(4-cyanophenyl)-2-((4-(((5-fluoro-1H-benzo[d]imidazol-2-yl)methyl)amino)-6-((3-((4-(3-hydroxypyrazine-2-carbonyl)piperazin-1-yl)methyl)phenyl)amino)-1,3,5-triazin-2-yl)amino)-N-(2-(2-methoxyethoxy)ethyl)propanamide] were, in that order, below 20 µM and above 100 µM.
As for `COC(=O)[C@@H](Cc1ccc(C#N)cc1)Nc1nc(NCc2nc3cc(F)ccc3[nH]2)nc(Nc2cccc(CN3CCN(C(=O)c4nccnc4O)CC3)c2)n1` [TA1027, methyl (R)-3-(4-cyanophenyl)-2-((4-(((5-fluoro-1H-benzo[d]imidazol-2-yl)methyl)amino)-6-((3-((4-(3-hydroxypyrazine-2-carbonyl)piperazin-1-yl)methyl)phenyl)amino)-1,3,5-triazin-2-yl)amino)propanoate], the IC50 was below 20 µM in assay [1] and above 100 µM in assay [2].
For `COC(=O)[C@H](Cc1ccc(C#N)cc1)Nc1nc(Nc2cccc(CN3CCN(C(=O)c4nccnc4O)CC3)c2)nc(N(C)CCc2nc3ccc(OC)cc3[nH]2)n1` [TA1053, methyl (S)-3-(4-cyanophenyl)-2-((4-((3-((4-(3-hydroxypyrazine-2-carbonyl)piperazin-1-yl)methyl)phenyl)amino)-6-((2-(6-methoxy-1H-benzo[d]imidazol-2-yl)ethyl)(methyl)amino)-1,3,5-triazin-2-yl)amino)propanoate], the 50% inhibitory concentration (IC50) was below 20 µM in assay [1] and above 100 µM in assay [2].
On to `COC(=O)[C@H](Cc1ccc(C#N)cc1)Nc1nc(NCc2nc3cc(Cl)ccc3[nH]2)nc(Nc2cccc(CN3CCN(C(=O)c4nccnc4O)CC3)c2)n1` [TA1059, methyl (S)-2-((4-(((5-chloro-1H-benzo[d]imidazol-2-yl)methyl)amino)-6-((3-((4-(3-hydroxypyrazine-2-carbonyl)piperazin-1-yl)methyl)phenyl)amino)-1,3,5-triazin-2-yl)amino)-3-(4-cyanophenyl)propanoate], for which the IC50 was below 20 µM in assay [1] and above 100 µM in assay [2].
In the case of `COC(=O)[C@H](Cc1ccc(C#N)cc1)Nc1nc(NCc2nc3cc(Cl)ccc3[nH]2)nc(Nc2cccc(CN3CCN(C(=O)c4c[nH]nn4)CC3)c2)n1` [TA1061, methyl (S)-2-((4-((3-((4-(1H-1,2,3-triazole-4-carbonyl)piperazin-1-yl)methyl)phenyl)amino)-6-(((5-chloro-1H-benzo[d]imidazol-2-yl)methyl)amino)-1,3,5-triazin-2-yl)amino)-3-(4-cyanophenyl)propanoate], the values for the IC50 in assay [1] and in assay [2] were below 20 µM and above 100 µM, respectively.
Take `COC(=O)[C@H](Cc1ccccc1)Nc1nc(NCc2nc3cc(F)ccc3[nH]2)nc(Nc2cccc(CN3CCN(C(=O)c4nccnc4O)CC3)c2)n1` [TA1065, methyl (4-(((5-fluoro-1H-benzo[d]imidazol-2-yl)methyl)amino)-6-((3-((4-(3-hydroxypyrazine-2-carbonyl)piperazin-1-yl)methyl)phenyl)amino)-1,3,5-triazin-2-yl)-L-phenylalaninate]: the IC50 is below 20 µM in assay [1] and 20 to 100 µM in assay [2].
Consider `COC(=O)[C@H](Cc1ccc(C#N)cc1)Nc1nc(NCc2nc3cc(F)ccc3[nH]2)nc(Nc2cccc(CN3CCN(C(=O)c4ccnnc4O)CC3)c2)n1` [TA1066, methyl (S)-3-(4-cyanophenyl)-2-((4-(((5-fluoro-1H-benzo[d]imidazol-2-yl)methyl)amino)-6-((3-((4-(3-hydroxypyridazine-4-carbonyl)piperazin-1-yl)methyl)phenyl)amino)-1,3,5-triazin-2-yl)amino)propanoate], for which the values for the IC50 in assay [1] and in assay [2] were below 20 µM and above 100 µM, respectively.
`COCCOCCOC(=O)[C@H](Cc1ccc(C#N)cc1)Nc1nc(NCc2nc3cc(F)ccc3[nH]2)nc(Nc2cccc(CN3CCN(C(=O)c4nccnc4O)CC3)c2)n1` [TA1070, 2-(2-methoxyethoxy)ethyl (S)-3-(4-cyanophenyl)-2-((4-(((5-fluoro-1H-benzo[d]imidazol-2-yl)methyl)amino)-6-((3-((4-(3-hydroxypyrazine-2-carbonyl)piperazin-1-yl)methyl)phenyl)amino)-1,3,5-triazin-2-yl)amino)propanoate]: the IC50 in assay [1] is below 20 µM; in assay [2], above 100 µM.
As for `N#Cc1ccc(C[C@H](Nc2nc(NCc3nc4cc(F)ccc4[nH]3)nc(Nc3cccc(CN4CCN(C(=O)c5nccnc5O)CC4)c3)n2)C(=O)O)cc1` [TA1071, (S)-3-(4-cyanophenyl)-2-((4-(((5-fluoro-1H-benzo[d]imidazol-2-yl)methyl)amino)-6-((3-((4-(3-hydroxypyrazine-2-carbonyl)piperazin-1-yl)methyl)phenyl)amino)-1,3,5-triazin-2-yl)amino)propanoic acid], the IC50 is below 20 µM in assay [1] and above 100 µM in assay [2].
